Data set [1] concerns Mycobacterium tuberculosis. The experiment in a line: Antimycobacterial activity against Mycobacterium tuberculosis H37Rv at 250 uM after 4 days by alamar blue assay. Format: functional, organism-based. For orientation: Resazurin is reduced to fluorescent resorufin, in cell work by metabolically active cells.
The subject of data set [2] is Mycobacterium tuberculosis. The experiment in a line: Antimycobacterial activity against Mycobacterium tuberculosis H37Rv at 500 uM after 4 days by alamar blue assay. The class given is functional, organism-based.
Data set [3] addresses T1, Steroid C26-monooxygenase (Mycobacterium tuberculosis, UniProt P9WPP1).
T1 sequence (P9WPP1 whole entry): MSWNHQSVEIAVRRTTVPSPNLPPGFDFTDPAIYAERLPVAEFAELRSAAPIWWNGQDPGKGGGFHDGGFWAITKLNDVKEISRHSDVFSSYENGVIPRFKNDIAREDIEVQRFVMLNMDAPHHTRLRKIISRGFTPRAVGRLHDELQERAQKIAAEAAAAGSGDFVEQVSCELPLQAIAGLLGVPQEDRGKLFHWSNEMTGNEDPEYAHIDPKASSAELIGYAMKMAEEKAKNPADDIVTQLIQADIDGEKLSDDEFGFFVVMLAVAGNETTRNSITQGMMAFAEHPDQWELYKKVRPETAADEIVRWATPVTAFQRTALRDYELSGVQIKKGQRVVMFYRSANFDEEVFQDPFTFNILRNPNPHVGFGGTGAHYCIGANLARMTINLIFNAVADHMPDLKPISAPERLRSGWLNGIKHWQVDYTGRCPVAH

The target of data set [4] is T2, Cytochrome P450 130 (Mycobacterium tuberculosis, UniProt P9WPN5).
T2 sequence (P9WPN5 whole entry): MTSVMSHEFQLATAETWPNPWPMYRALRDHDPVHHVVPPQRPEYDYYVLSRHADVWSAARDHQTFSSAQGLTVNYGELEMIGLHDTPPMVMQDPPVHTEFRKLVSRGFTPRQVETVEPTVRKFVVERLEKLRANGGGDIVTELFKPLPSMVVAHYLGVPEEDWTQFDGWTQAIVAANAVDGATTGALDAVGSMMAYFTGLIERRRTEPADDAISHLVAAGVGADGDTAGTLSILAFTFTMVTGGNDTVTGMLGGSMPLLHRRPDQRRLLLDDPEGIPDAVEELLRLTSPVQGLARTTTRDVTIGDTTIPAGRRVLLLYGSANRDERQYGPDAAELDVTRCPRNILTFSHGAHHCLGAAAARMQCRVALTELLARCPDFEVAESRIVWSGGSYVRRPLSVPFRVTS

Data set [5] has as its target T3, Sterol 14alpha-demethylase (Mycobacterium tuberculosis, UniProt P9WPP9).
T3 sequence (P9WPP9 whole entry): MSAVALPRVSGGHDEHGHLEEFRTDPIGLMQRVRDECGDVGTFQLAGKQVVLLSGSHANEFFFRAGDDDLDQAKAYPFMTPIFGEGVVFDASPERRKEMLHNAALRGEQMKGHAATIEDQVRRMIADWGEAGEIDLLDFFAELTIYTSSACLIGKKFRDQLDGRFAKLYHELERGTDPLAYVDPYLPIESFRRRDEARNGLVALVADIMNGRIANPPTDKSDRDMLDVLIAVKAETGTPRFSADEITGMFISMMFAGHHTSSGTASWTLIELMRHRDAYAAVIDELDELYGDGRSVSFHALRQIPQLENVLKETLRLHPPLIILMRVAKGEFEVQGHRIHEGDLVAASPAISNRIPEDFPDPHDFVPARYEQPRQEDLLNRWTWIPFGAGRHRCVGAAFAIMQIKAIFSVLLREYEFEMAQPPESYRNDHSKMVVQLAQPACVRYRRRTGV

The target of data set [6] is T3, Sterol 14alpha-demethylase. This is another data set of the same source.
Data set [7] relates to Mycobacterium tuberculosis. The experiment in a line: Antimycobacterial activity against Mycobacterium tuberculosis H37Rv at 100 uM after 4 days by alamar blue assay. The class given is functional, organism-based.
The test system of data set [8] is Mycobacterium tuberculosis. In words: Antimycobacterial activity against Mycobacterium tuberculosis H37Rv at 200 uM after 4 days by alamar blue assay. The class given is functional, organism-based.

Molecules are shown by their SMILES. Calls of active or inactive are those of the source. The rule behind the calls is not given here.

Results on eleven molecules are retold here after ChEMBL document CHEMBL1138537, “Small-molecule scaffolds for CYP51 inhibitors identified by high-throughput screening and defined by X-ray crystallography” (Antimicrob Agents Chemother, 2007).

Usually Kd stands for the constant that tells how readily two partners part at equilibrium. On to `CCC(C(=O)Nc1ccncc1)c1ccccc1` (stereo not drawn), for which the outcome in data set [1] and in data set [2] was Active. The Kd in data set [3] stood at 2000 µM; in data set [4] it was 260 µM.

As for `O=C(Nc1ccncc1)C1(c2ccccc2)CCOCC1`, binding in data set [5] was put at a Kd of 5 µM.

As for `Nc1ccc(NS(=O)(=O)c2ccc(Cl)cc2)cc1`, the affinity in data set [5], expressed as Kd, was 5 µM. This lies in the single-digit micromolar range.

For `c1ccc(-c2c[nH]cn2)cc1`, binding in data set [6] was characterised by a dissociation constant (Kd) of 1.3 µM. This counts as single-digit micromolar.

The molecule `CCC1(C)CC(CCN)(c2ccc(OC)cc2)CCO1` (stereo not drawn) came in with a dissociation constant (Kd) in data set [5] of 5 µM.

With `COc1ccccc1C(CCN)c1ccco1` (stereo not drawn), the dissociation constant Kd in data set [5] turned out to be 5 µM.

As for `O=C(Nc1ccncc1)C(NS(=O)(=O)c1cccc2nsnc12)c1ccccc1` (stereo not drawn), in data set [5], the dissociation constant (Kd) stood at 5 µM.

`O=C(c1ccc(O)cc1)c1ccc(O)cc1` returned a Kd in data set [6] of 28 µM. The result in data set [7] and in data set [8] was Active. Further, the Activity result in data set [3] (mycobacterium tuberculosis) and in data set [4] (mycobacterium tuberculosis) was “Not Active” throughout.

Turning to `O=C1c2cc(O)ccc2-c2ccc(O)cc21`, in data set [6], the Kd is 25 µM. That is a double-digit micromolar value.

In data set [5], `NCC(=O)N1c2ccccc2Sc2ccccc21` came in with a dissociation constant Kd of 5 µM.

Take `C[C@]12CC[C@@H]3c4ccc(O)cc4CC[C@H]3[C@@H]1C[C@@H](O)[C@@H]2O` [ESTRIOL]: binding in data set [6] was characterised by a dissociation constant (Kd) of 100 µM.
